# Reference: patent US9504675B2, “Alpha-ketoheterocycles and methods of making and using” (The Scripps Research Institute, priority 2011, dated 2016)
# Molecular target: T1, recombinant rat FAAH (rFAAH) (Rattus norvegicus, UniProt P97612)
# T1 construct: The truncated rat FAAH (rFAAH) was expressed in E. coli and purified; made in house; host or cells: Escherichia coli
# T1 sequence (P97612 30-579 limits assumed): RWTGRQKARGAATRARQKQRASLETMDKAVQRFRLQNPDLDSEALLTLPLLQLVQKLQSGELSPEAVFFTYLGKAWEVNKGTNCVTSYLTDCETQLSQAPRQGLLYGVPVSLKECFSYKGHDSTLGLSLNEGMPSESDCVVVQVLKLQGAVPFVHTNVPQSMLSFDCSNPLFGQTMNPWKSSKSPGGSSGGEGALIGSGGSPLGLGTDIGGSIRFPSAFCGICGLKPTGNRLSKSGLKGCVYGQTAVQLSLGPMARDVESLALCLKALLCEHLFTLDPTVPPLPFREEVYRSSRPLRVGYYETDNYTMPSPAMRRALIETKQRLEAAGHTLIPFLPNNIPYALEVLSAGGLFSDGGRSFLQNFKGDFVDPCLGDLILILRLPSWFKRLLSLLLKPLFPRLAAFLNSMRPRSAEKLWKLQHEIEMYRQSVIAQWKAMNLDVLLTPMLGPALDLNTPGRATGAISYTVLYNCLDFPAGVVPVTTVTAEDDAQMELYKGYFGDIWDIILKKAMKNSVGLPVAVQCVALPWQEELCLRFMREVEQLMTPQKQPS
# Assay: Enzyme assay: inhibition of purified recombinant rat FAAH, 14C-oleamide hydrolysis, Ki by Dixon plot
# Type: biochemical
# Conditions: not given
# Protocol: Enzyme assays were performed at 20-23° C. with purified recombinant rat FAAH expressed in Escherichia coli or with solubilized COS-7 membrane extracts from cells transiently transfected with human FAAH cDNA (where specifically indicated) in a buffer of 125 mM Tris/1 mM EDTA/0.2% glycerol/0.02% Triton X-100/0.4 mM Hepes, pH 9.0.
# ^14C-labeled oleamide was prepared from ^14C-labeled oleic acid. The truncated rat FAAH (rFAAH) was expressed in E. coli and purified. The purified recombinant rFAAH was used in the inhibition assays unless otherwise indicated. The full-length human FAAH (hFAAH) was expressed in COS-7 cells as described, and the lysate of hFAAH-transfected COS-7 cells was used in the inhibition assays where explicitly indicated.
# The inhibition assays were performed as follows. […] The enzyme reaction was terminated by transferring 20 μL of the reaction mixture to 500 μL of 0.1 N HCl at three different time points. The ^14C-labeled oleamide (substrate) and oleic acid (product) were extracted with EtOAc and analyzed by TLC as detailed. The Ki of the inhibitor was calculated using a Dixon plot as described (standard deviations are provided in the Supporting Information tables).
row,Structure (SMILES),Ki relative to the FAAH inhibitor lacking the conformational constraints (Ki=200 nM)
1,"O=C(c1ncc(-c2ccccn2)o1)C1Cc2ccccc2C1 [Compound 40, (Indan-2-yl)(5-(pyridin-2-yl)oxazol-2-yl)methanone]",5 fold

# Same assay, conditions: Ki, Table 2, (R)-enantiomer, 1,2,3,4-tetrahydronaphthalene C2 acyl side chain
row,Structure (SMILES),Ki
1,"O=C(O)c1cccc(-c2cnc(C(=O)C3CCc4cc(-c5ccccc5)ccc4C3)o2)n1 (single isomer, unassigned) [(R)-8, 6-(2-(6-Phenyl-1,2,3,4-tetrahydronaphthalene-2-carbonyl)oxazol-5-yl)picolinic acid]",500 nM
2,"N#Cc1cnc(C(=O)C2CCc3cc(-c4ccccc4)ccc3C2)o1 (single isomer, unassigned) [(R)-5, 2-(6-Phenyl-1,2,3,4-tetrahydronaphthalene-2-carbonyl)oxazole-5-carbonitrile]",62 nM
3,"COC(=O)c1cccc(-c2cnc(C(=O)C3CCc4cc(OCc5ccccc5)ccc4C3)o2)n1 (single isomer, unassigned) [(R)-19, Methyl 6-(2-(6-(Benzyloxy)-1,2,3,4-tetrahydronaphthalene-2-carbonyl)oxazol-5-yl)picolinate]",4500 nM
4,"COC(=O)c1cnc(C(=O)C2CCc3cc(-c4ccccc4)ccc3C2)o1 (single isomer, unassigned) [(R)-4, Methyl 2-(6-Phenyl-1,2,3,4-tetrahydronaphthalene-2-carbonyl)oxazole-5-carboxylate]",1400 nM
5,"O=C(c1ncc(-c2ccccn2)o1)C1CCc2cc(Oc3ccccc3)ccc2C1 (single isomer, unassigned) [(R)-12, (6-Phenoxy-1,2,3,4-tetrahydronaphthalen-2-yl)(5-(pyridin-2-yl)oxazol-2-yl)methanone]",290 nM
6,"COC(=O)c1cccc(-c2cnc(C(=O)C3CCc4cc(Oc5ccccc5)ccc4C3)o2)n1 (single isomer, unassigned) [(R)-13, Methyl 6-(2-(6-Phenoxy-1,2,3,4-tetrahydronaphthalene-2-carbonyl)oxazol-5-yl)picolinate]",870 nM
7,"COC(=O)c1cnc(C(=O)C2CCc3cc(OCc4ccccc4)ccc3C2)o1 (single isomer, unassigned) [(R)-16, Methyl 2-(6-(Benzyloxy)-1,2,3,4-tetrahydronaphthalene-2-carbonyl)oxazole-5-carboxylate]",53 nM
8,"N#Cc1cnc(C(=O)C2CCc3cc(OCc4ccccc4)ccc3C2)o1 (single isomer, unassigned) [(R)-17, 2-(6-(Benzyloxy)-1,2,3,4-tetrahydronaphthalene-2-carbonyl)oxazole-5-carbonitrile]",120 nM
9,"COC(=O)c1cnc(C(=O)C2CCc3cc(Oc4ccccc4)ccc3C2)o1 (single isomer, unassigned) [(R)-10, Methyl 2-(6-Phenoxy-1,2,3,4-tetrahydronaphthalene-2-carbonyl)oxazole-5-carboxylate]",59 nM
10,"O=C(c1ncc(-c2ccccn2)o1)C1CCc2cc(OCc3ccccc3)ccc2C1 (single isomer, unassigned) [(R)-18, (6-(Benzyloxy)-1,2,3,4-tetrahydronaphthalen-2-yl)(5-(pyridin-2-yl)oxazol-2-yl)methanone]",300 nM
11,"O=C(O)c1cccc(-c2cnc(C(=O)C3CCc4cc(OCc5ccccc5)ccc4C3)o2)n1 (single isomer, unassigned) [(R)-20, 6-(2-(6-(Benzyloxy)-1,2,3,4-tetrahydronaphthalene-2-carbonyl)oxazol-5-yl)picolinic acid]",740 nM

# Same assay, conditions: Ki, Table 2, (S)-enantiomer, 1,2,3,4-tetrahydronaphthalene C2 acyl side chain
row,Structure (SMILES),Ki
1,"COC(=O)c1cccc(-c2cnc(C(=O)C3CCc4cc(OCc5ccccc5)ccc4C3)o2)n1 (single isomer, unassigned) [(S)-19, Methyl 6-(2-(6-(Benzyloxy)-1,2,3,4-tetrahydronaphthalene-2-carbonyl)oxazol-5-yl)picolinate]",18 nM
2,"O=C(O)c1cccc(-c2cnc(C(=O)C3CCc4cc(-c5ccccc5)ccc4C3)o2)n1 (single isomer, unassigned) [(S)-8, 6-(2-(6-Phenyl-1,2,3,4-tetrahydronaphthalene-2-carbonyl)oxazol-5-yl)picolinic acid]",39 nM
3,"COC(=O)c1cnc(C(=O)C2CCc3cc(Oc4ccccc4)ccc3C2)o1 (single isomer, unassigned) [(S)-10, Methyl 2-(6-Phenoxy-1,2,3,4-tetrahydronaphthalene-2-carbonyl)oxazole-5-carboxylate]",5.4 nM
4,"COC(=O)c1cccc(-c2cnc(C(=O)C3CCc4cc(Oc5ccccc5)ccc4C3)o2)n1 (single isomer, unassigned) [(S)-13, Methyl 6-(2-(6-Phenoxy-1,2,3,4-tetrahydronaphthalene-2-carbonyl)oxazol-5-yl)picolinate]",2.2 nM
5,"O=C(O)c1cccc(-c2cnc(C(=O)C3CCc4cc(Oc5ccccc5)ccc4C3)o2)n1 (single isomer, unassigned) [(S)-14, 6-(2-(6-Phenoxy-1,2,3,4-tetrahydronaphthalene-2-carbonyl)oxazol-5-yl)picolinic acid]",25 nM
6,"N#Cc1cnc(C(=O)C2CCc3cc(Oc4ccccc4)ccc3C2)o1 (single isomer, unassigned) [(S)-11, 2-(6-Phenoxy-1,2,3,4-tetrahydronaphthalene-2-carbonyl)oxazole-5-carbonitrile]",1.3 nM

# Same assay, conditions: Ki, Table 3, (R)-enantiomer, indane C2 acyl side chain
row,Structure (SMILES),Ki
1,"O=C(c1ncco1)C1Cc2ccc(Oc3ccccc3)cc2C1 (single isomer, unassigned) [(R)-26, Oxazol-2-yl(5-phenoxyindan-2-yl)methanone]",200 nM
2,"O=C(O)c1cccc(-c2cnc(C(=O)C3Cc4ccc(OCc5ccccc5)cc4C3)o2)n1 (single isomer, unassigned) [(R)-33, 6-(2-(5-(Benzyloxy)indane-2-carbonyl)oxazol-5-yl)picolinic acid]",660 nM
3,"O=C(c1ncc(-c2ccccn2)o1)C1Cc2ccc(-c3ccccc3)cc2C1 (single isomer, unassigned) [(R)-23, (5-Phenylindan-2-yl)-(5-(pyridin-2-yl)oxazol-2-yl)methanone]",600 nM
4,"O=C(O)c1cccc(-c2cnc(C(=O)C3Cc4ccc(Oc5ccccc5)cc4C3)o2)n1 (single isomer, unassigned) [(R)-29, 6-(2-(5-Phenoxyindane-2-carbonyl)oxazol-5-yl)picolinic acid]",550 nM
5,"COC(=O)c1cccc(-c2cnc(C(=O)C3Cc4ccc(Oc5ccccc5)cc4C3)o2)n1 (single isomer, unassigned) [(R)-28]",790 nM

# Same assay, conditions: Ki, Table 3, tentatively assigned (S)-enantiomer, indane C2 acyl side chain
row,Structure (SMILES),Ki
1,"O=C(c1ncc(-c2ccccn2)o1)C1Cc2ccc(OCc3ccccc3)cc2C1 (single isomer, unassigned) [(S)-31, (5-(Benzyloxy)indan-2-yl)(5-(pyridin-2-yl)oxazol-2-yl)methanone]",1.4 nM
2,"COC(=O)c1cccc(-c2cnc(C(=O)C3Cc4ccc(Oc5ccccc5)cc4C3)o2)n1 (single isomer, unassigned) [(S)-28]",98 nM
3,"O=C(c1ncc(-c2ccccn2)o1)C1Cc2ccc(Oc3ccccc3)cc2C1 (single isomer, unassigned) [(S)-27, (5-Phenoxyindan-2-yl)(5-(pyridin-2-yl)oxazol-2-yl)methanone]",2.1 nM
4,"O=C(c1ncc(-c2ccccn2)o1)C1Cc2ccc(-c3ccccc3)cc2C1 (single isomer, unassigned) [(S)-23, (5-Phenylindan-2-yl)-(5-(pyridin-2-yl)oxazol-2-yl)methanone]",1.9 nM

# Same assay, conditions: Ki, Table 4, (S)-enantiomer, additional FAAH inhibitors
row,Structure (SMILES),Ki
1,"O=C(c1nnc(-c2ccccn2)o1)C1CCc2cc(Oc3ccccc3)ccc2C1 (single isomer, unassigned) [(S)-36, (6-Phenoxy-1,2,3,4-tetrahydronaphthalen-2-yl)(5-(pyridin-2-yl)-1,3,4-oxadiazol-2-yl)methanone]",1 nM
2,"O=C(c1ncc(-c2ccccn2)o1)C1CCc2ccccc2C1 (single isomer, unassigned) [(S)-38, (5-(Pyridin-2-yl)oxazol-2-yl)(1,2,3,4-tetrahydronaphthalen-2-yl)methanone]",430 nM
3,"O=C(c1ncco1)C1CCc2ccccc2C1 (single isomer, unassigned) [(S)-37, Oxazol-2-yl(1,2,3,4-tetrahydronaphthalen-2-yl)methanone]",5100 nM

# Same assay, conditions: ratio of FAAH inhibition between enantiomers
row,potency of more active (S)-enantiomer over (R)-enantiomer,Structure (SMILES)
1,ca. 200 fold,"O=C(c1ncc(I)o1)C1CCc2cc(OCc3ccccc3)ccc2C1 (centres unmarked) [Compound 21, (6-(Benzyloxy)-1,2,3,4-tetrahydronaphthalen-2-yl)(5-iodooxazol-2-yl)methanone]"

# Same assay, conditions: read-out: Ki
row,Structure (SMILES),Ki
1,"O=C(c1ncc(-c2ccccn2)o1)C1Cc2ccccc2C1 [Compound 40, (Indan-2-yl)(5-(pyridin-2-yl)oxazol-2-yl)methanone]",1100 nM
